According to patent US20110207807A1, “NEW USE FOR HOMOISOFLAVONE OR A SALT THEREOF” (Catholic University Industry Academy Cooperation Foundation, priority 2008, published 2011):

Legend:
leukotriene B4 = assay: Release of leukotriene B4 induced by PMA and A23187 in HMC-1 (enzyme immunoassay); type: cell-based, human
From the text: (§1) Phorbol 12-myristate 13-acetate and A23187 lead to degranulation of human mast cells (HMC), causing the mast cells to release not only their histamine or serotonin but also newly produced inflammatory factors such as pro-inflammatory cytokines, prostaglandins and leukotrienes. It was investigated whether homoisoflavanone has anti-inflammatory effect in mast cells as in Examples 4 and 5. In order to investigate the effect of homoisoflavanone on the release of leukotriene induced by phorbol 12-myristate 13-acetate and A23187 in HMC-1, 1×10^6 HMC-1 cells were inoculated on a 100-mm culture dish and cultured in Iscove's modified Dulbecco's medium (IMDM, GIBCO) containing 10% FBS for 48 hours. Then, after treating with homoisoflavanone at 2 μg/mL or with mizolastine at 10 μg/mL for comparison for 1 hour, the cells were treated with 50 nM phorbol 12-myristate 13-acetate and 1 μM A23187 to induce release of leukotriene, and then further cultured for 21 hours. Then, the supernatant was collected and the quantity of released leukotriene B4 and C4 was measured using a leukotriene B4, C4 enzyme immunoassay kit (Sapphire Bioscience, Australia).

leukotriene C4 = assay: Release of leukotriene C4 induced by PMA and A23187 in HMC-1 (enzyme immunoassay); type: cell-based; conditions: Homo sapiens, HMC1; HMC-1, homoisoflavanone 2 μg/mL or mizolastine 10 μg/mL, 50 nM PMA + 1 μM A23187, 21 hours (FIG. 6b)
From the text: as §1

leukotriene B4 release when treated alone, versus non-treated group (leukotriene B4; HMC-1, homoisoflavanone 2 μg/mL or mizolastine 10 μg/mL alone, without PMA/A23187 (FIG. 6a)): no appreciable difference
SMILES: CN(c1nccc(=O)[nH]1)C1CCN(c2nc3ccccc3n2Cc2ccc(F)cc2)CC1 [mizolastine, reference compound]
inhibition at 10 µg/mL (leukotriene B4; Homo sapiens, HMC1, HMC-1, homoisoflavanone 2 μg/mL or mizolastine 10 μg/mL, 50 nM PMA + 1 μM A23187, 21 hours (FIG. 6a)): 20%
inhibition at 10 µg/mL (leukotriene C4): ≥ 90%
